Read-outs that look alike come from different tables or passages of the source.
Tests used:
[1] = molecular target: T1, human recombinant AKR1B1 (Homo sapiens, UniProt P15121); assay: Steady state inhibition kinetic analysis (Hanes-Woolf and secondary plots); format: biochemical; settings: for Ki / Ki’ (appK’i, ESI complex dissociation constant): mean ± SD; for Ki: read-out: Ki (appKi, EI complex dissociation constant)
T1 construct: made in house
Description: The AKR1B1 activity was determined at 37 °C, as previously described, monitoring the decrease in absorbance at 340 nm linked to NADPH oxidation (ε340 = 6.22 mM^−1.cm^−1) using a Biochrom Libra S60 spectrophotometer. The standard assay mixture (0.7 mL) contained in a 0.25 M sodium phosphate buffer pH 6.8, 0.18 mM NADPH, 0.4 M ammonium sulfate, 0.5 mM EDTA, and 4.7 mM GAL. One unit of enzyme activity is the amount of enzyme that catalyzes the conversion of 1 µmol of substrate/min in the above assay conditions.
The kinetic analysis of the experimental rate measurements with different substrates (S) in the presence of inhibitors (I) was performed on the classical inhibition model of action. Here, (I) is considered to intervene into a steady state condition of the reaction, being free to interact with the free enzyme (E), the ES complex or with both, through a rapid equilibrium. Data were analyzed by Hanes-Woolf plots. The apparent dissociation constants ^appKi’ (for the ESI complex) and ^appKi (for the EI complex) were determined from secondary plots of 1/^appVmax and ^appKM/^appVmax as a function of the inhibitor concentration, respectively.

[2] = molecular target: T1, human recombinant AKR1B1; assay: AKR1B1 activity assay (NADPH oxidation at 340 nm), dose-dependent inhibition, IC50; format: biochemical
Description: One unit of enzyme activity is the amount of enzyme that catalyzes the conversion of 1 µmol of substrate/min in the above assay conditions.
The human recombinant AKR1B1 was expressed and purified to electrophoretic homogeneity, as previously described. […] The purified enzyme was stored at −80 °C in a 10 mM sodium phosphate buffer pH 7.0 containing 2 mM DTT and 30% (w/v) glycerol. Before use, AKR1B1 was extensively dialyzed against 10 mM of a sodium phosphate buffer pH 7.0.

[3] = tested on: AKR1B1; settings: known inhibitor co-crystallized with AKR1B1, PDB code 4IGS; cited from earlier work
[4] = 8 mM L-idose, 0.03 mM HNE, 0.07 mM GSHNE

Row | Compound | type (model) of inhibition ([1]; substrate GSHNE) | Ki ([1]; substrate GSHNE) | Ki/Ki’ ([1]; substrate HNE) | Ki’ (appK’i, ESI complex dissociation constant) ([1]; substrate HNE) | Ki ([1]; substrate HNE) | Ki/Ki’ ([1]; substrate L-idose) | Ki’ (appK’i, ESI complex dissociation constant) ([1]; substrate L-idose) | ARDI action (differential inhibition of L-idose and GSHNE reduction with respect to HNE) [2, 4] | IC50 ([2]; read-out: IC50 values, unaffected by the nature of the substrate) | Ki’ (appK’i, ESI complex dissociation constant) ([1]; substrate GSHNE) | type (model) of inhibition ([1]; substrate HNE) | type (model) of inhibition ([1]; substrate L-idose) | residual activity for HNE reduction, of activity in the absence of inhibitor ([2]; 0.03 mM HNE, at EGCG concentrations equal to its IC50 for L-idose and GSHNE ([…] and […])) | IC50 ([2]; IC50, GSHNE reduction, 0.07 mM GSHNE, 8 mU AKR1B1, 37 °C, pH 6.8) | IC50 ([2]; IC50, HNE reduction, 0.03 mM HNE, 8 mU AKR1B1, 37 °C, pH 6.8) | IC50 ([2]; IC50, L-idose reduction, 8 mM L-idose, 8 mU AKR1B1, 37 °C, pH 6.8) | activity as AKR1B1 inhibitor [3]
1 | Oc1cc(O)c2c(c1)O[C@H](c1cc(O)c(O)c(O)c1)[C@H](O)C2 [EGC, epigallocatechin] | competitive inhibitor | 553 ± 87 µM | 2.5 | 686 ± 63 µM | 1680 ± 289 µM | 2.5 | 496 ± 35 µM | completely ineffective as ARDI | 500 to 700 µM |  |  |  |  |  |  |  | 
2 | O=C(O[C@@H]1Cc2c(O)cc(O)cc2O[C@@H]1c1cc(O)c(O)c(O)c1)c1cc(O)c(O)c(O)c1 [EGCG, epigallocatechin gallate] | apparently purely non-competitive type of inhibition |  |  | 116 ± 11 µM |  |  | 61 ± 9 µM | comparable significant (p < 0.0001) ARDI action |  | 144 ± 22 µM | typical uncompetitive model of action | mixed type of inhibition | 80–90% |  |  |  | 
3 | O=C(O)c1cc(O)c(O)c(O)c1 [GA, gallic acid] | apparent uncompetitive model of action |  |  | 253 ± 23 µM |  |  | 103 ± 7 µM | still able to act as an ARDI |  | 793 ± 102 µM | apparent uncompetitive model of action | apparent uncompetitive model of action |  | 2500 µM | 586 µM | 196 µM | 
4 | Oc1c(F)c(F)c(-c2c(F)c(F)c(O)c(F)c2F)c(F)c1F [JF0064] |  |  |  |  |  |  |  |  |  |  |  |  |  |  |  |  | very active at sub micromolar levels

Source: publication PMC7407822, “Aldose Reductase Differential Inhibitors in Green Tea” (Biomolecules, 2020)
